# Laboratory results: ChEMBL document CHEMBL1201862, “PubChem BioAssay data set” (2004)
# Calls of active or inactive are those of the source.
# Key:
# [1] = Luminescence Cell-Based Dose Response HTS to Identify Inhibitors of 5'UTR Stem-Loop Driven Prion Protein mRNA Translation in H4 Neuroglioblastoma Cells. [Related pubchem assays: 1827 (Project Summary), 1813 (Primary HTS)]; assay type: functional
# [2] = target: Intestinal-type alkaline phosphatase (Homo sapiens, UniProt P09923); experiment: human intestinal alkaline phosphatase activators, dose response, biochemical, luminescence, uHTS hits (AID 463120); assay type: functional
# [3] = inhibitors of firefly luciferase expression or activity, dose response, H4 neuroglioma cells, luminescence (AID 1990); assay type: functional, cell-based
# [4] = inhibitors of SNCA 5'UTR-driven reporter translation, confirmation, H4 neuroglioma cells, luminescence (AID 1988); assay type: functional, cell-based
# [5] = target: T1, E3 ubiquitin-protein ligase XIAP (Homo sapiens, UniProt P98170); experiment: XIAP antagonists, biochemical, IAP family, fluorescence polarization (AID 1018); assay type: functional
# [6] = target: T1, E3 ubiquitin-protein ligase XIAP; experiment: Counter Screen using XIAP-Bir3 for Chemical Antagonists of Bir1/2 domains of IAP-family anti-apoptotic proteins. [Related pubchem assays (depositor defined):AID1018, AID1449, AID1514, AID1638, AID1749, AID1750, AID488957, AID488963]
# Integrin alpha-4 = Integrin alpha-4 (Homo sapiens, UniProt P13612); experiment: VLA-4 integrin allosteric ligands, SAR follow-up, cell-based, LIBS antibody binding, flow cytometry (AID 488791); assay type: functional
# Vero = experiment: cells; assay type: functional; details: Chlorocebus sabaeus
# A-375 [7] = experiment: A375 melanoma cell viability reduction, dose response, counter-screen for MITF modulator project, cherry-pick samples, set 2 (AID 540335); assay type: functional, cell-based; details: Homo sapiens
# A-375 [8] = experiment: MITF: Counter assay: A375 proliferation Measured in Cell-Based System Using Plate Reader - 2084-03_Inhibitor_Dose_DryPowder_Activity. [Related pubchem assays (depositor defined):AID488944]; assay type: functional; details: Homo sapiens
# [9] = target: T2, Microphthalmia-associated transcription factor (Homo sapiens, UniProt O75030); experiment: TRPM1 promoter luciferase signal decrease, dose response, MITF inhibitor project, cell-based, SK-MEL-5, cherry-picked, set 3 (AID 493073); assay type: functional
# T2 sequence (O75030 whole entry): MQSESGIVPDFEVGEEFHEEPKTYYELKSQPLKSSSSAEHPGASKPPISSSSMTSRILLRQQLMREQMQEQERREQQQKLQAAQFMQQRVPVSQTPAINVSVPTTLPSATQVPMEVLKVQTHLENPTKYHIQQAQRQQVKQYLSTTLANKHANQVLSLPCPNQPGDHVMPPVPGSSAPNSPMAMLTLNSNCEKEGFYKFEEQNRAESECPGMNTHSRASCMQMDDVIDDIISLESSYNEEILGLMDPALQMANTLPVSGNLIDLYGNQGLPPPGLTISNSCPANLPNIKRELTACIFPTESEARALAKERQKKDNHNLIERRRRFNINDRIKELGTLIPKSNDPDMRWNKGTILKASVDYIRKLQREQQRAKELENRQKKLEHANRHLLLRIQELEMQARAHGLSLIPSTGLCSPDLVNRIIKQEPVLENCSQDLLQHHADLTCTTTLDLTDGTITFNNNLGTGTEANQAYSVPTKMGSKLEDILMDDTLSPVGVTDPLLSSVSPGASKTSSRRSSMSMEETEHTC
# T1 sequence (P98170 whole entry): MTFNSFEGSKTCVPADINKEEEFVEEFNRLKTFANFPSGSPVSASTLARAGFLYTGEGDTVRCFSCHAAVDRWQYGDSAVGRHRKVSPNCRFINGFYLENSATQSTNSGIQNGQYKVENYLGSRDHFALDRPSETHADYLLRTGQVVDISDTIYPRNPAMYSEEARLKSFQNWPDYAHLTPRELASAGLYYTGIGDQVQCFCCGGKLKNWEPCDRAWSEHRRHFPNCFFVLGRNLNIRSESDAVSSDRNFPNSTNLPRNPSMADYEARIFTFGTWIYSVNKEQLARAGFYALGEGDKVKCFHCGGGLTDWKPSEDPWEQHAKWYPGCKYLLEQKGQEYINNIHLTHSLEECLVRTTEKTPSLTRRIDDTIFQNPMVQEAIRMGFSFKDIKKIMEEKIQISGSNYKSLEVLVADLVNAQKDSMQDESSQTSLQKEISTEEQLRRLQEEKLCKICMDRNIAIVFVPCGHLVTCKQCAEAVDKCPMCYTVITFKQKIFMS
# Sequence of Integrin alpha-4 (P13612 whole entry): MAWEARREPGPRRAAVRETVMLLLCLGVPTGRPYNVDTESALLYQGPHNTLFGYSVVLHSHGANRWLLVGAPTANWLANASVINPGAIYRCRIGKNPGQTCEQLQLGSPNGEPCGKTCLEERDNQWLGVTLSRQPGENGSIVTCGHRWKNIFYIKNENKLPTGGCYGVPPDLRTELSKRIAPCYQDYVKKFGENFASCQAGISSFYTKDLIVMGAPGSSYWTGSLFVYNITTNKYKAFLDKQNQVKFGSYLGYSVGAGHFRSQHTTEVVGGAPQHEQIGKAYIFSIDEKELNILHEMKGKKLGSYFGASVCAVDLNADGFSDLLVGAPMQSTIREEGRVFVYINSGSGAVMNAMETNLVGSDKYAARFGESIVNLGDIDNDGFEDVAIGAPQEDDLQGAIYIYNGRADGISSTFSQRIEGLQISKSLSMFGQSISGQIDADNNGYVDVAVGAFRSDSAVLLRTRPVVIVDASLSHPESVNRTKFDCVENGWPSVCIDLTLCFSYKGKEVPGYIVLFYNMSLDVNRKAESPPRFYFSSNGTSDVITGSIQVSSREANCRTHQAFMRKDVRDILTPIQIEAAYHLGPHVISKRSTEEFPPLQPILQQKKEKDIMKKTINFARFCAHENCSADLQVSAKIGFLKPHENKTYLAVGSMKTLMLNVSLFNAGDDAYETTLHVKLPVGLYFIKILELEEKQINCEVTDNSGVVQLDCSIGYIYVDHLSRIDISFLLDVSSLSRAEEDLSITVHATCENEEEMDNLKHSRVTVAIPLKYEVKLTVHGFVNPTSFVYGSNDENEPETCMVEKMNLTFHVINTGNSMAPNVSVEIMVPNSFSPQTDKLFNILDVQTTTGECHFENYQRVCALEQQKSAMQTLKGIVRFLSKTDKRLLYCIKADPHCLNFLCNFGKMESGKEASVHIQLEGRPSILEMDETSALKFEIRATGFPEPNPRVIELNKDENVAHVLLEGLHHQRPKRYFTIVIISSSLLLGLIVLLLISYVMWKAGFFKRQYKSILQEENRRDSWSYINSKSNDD
# Sequence of Intestinal-type alkaline phosphatase (P09923 whole entry): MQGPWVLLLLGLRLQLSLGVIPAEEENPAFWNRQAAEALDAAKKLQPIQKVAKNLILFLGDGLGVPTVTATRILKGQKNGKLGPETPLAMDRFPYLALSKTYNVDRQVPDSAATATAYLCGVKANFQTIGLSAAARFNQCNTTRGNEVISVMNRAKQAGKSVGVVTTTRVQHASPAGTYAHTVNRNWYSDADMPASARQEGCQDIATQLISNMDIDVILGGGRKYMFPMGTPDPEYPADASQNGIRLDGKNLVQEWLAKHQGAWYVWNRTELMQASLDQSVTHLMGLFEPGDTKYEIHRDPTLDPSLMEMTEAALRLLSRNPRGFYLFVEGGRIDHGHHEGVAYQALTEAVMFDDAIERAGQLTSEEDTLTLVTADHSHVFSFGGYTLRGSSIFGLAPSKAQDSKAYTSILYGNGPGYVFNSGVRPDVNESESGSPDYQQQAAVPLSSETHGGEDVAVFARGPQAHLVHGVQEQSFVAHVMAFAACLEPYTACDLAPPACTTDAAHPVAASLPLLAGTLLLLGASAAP
smiles,measurement,setting,value
N#CCN1C(=S)N=C(Nc2cccc(Cl)c2)C12CCCCC2,EC50,[1],> 120 µM (not active)
same,EC50,[2],> 100 µM (inactive)
same,EC50,[3],> 120 µM (not active)
same,EC50,[4],> 120 µM (not active)
CCOC(=O)C1(CCCc2ccccc2)CCN(C(=O)C2=C(C)OCCO2)CC1,IC50,[5],> 100 µM (not active)
same,IC50,[6],> 100 µM (inactive)
CCOCCCNC(=O)/C(C#N)=C/c1ccc(Cl)c([N+](=O)[O-])c1,EC50,Integrin alpha-4,> 90.8 µM (inactive)
same,CC50,Vero,> 25 µM (active)
same,AC50,A-375 [7],> 35 µM (active)
same,AC50,A-375 [8],> 35 µM (active)
same,AC50,[9],7.38 µM (active)
